In patent publication US20100035755A1, “METHOD OF CONTROLLING WEEDS IN A TURF GRASS BY USING SULFONYLUREA COMPOUNDS” (Moghu Research Center Ltd., priority 2008, published 2010):

Legend:
Perennial rye grass = assay: Turf grass selectivity, greenhouse pot test; type: in vivo
Description: (§1) Turf mats of Zoysia grass, bentgrass, Kentucky bluegrass, or perennial rye grass known as cool season turfgrass or western grass were purchased and cut into a piece having 10 cm×20 cm size. Then, each piece was transplanted in a rectangular plastic pot (surface area of 300 cm^2) in which sandy loam and mixed top soil (Boo-Nong Top Soil No. 3, for horticultural use) are filled in 1:1 ratio. After the transplantation, the grasses were cut once a week to maintain the blade height at 0.5-1.0 cm and cultivated for one month in a green house of which temperature was kept at 25˜30° C. for daytime and 15˜25° C. for nighttime, respectively. Then, the ‘test chemical’ of the above Examples 1 and 2 or ‘control chemical’ was applied thereto in an amount of 400, 200, 100, 50, 25, 12, 6, 3 g ai/ha. As a “control chemical”, pyrazolsulfuron ethyl wettable agent (manufactured by Dongbu Fine Chemicals; herein after, referred to as ‘control chemical No. 1’) and flazasulfuron (manufactured by Dongbu HiTek; herein after, referred to as ‘control chemical No. 2’), both sulfonylurea herbicides for a turf grass, were used. Application was carried out by using a track sprayer (R&D Sprayer, USA) equipped with Teejet 8002 nozzle (Spraying Systems Co., USA), and the application amount was adjusted to 2,000 L/ha, which is a typical application amount for a golf course in Korea. Application solution was prepared by diluting the “test chemical” or the “control chemical” with tap water. […] The test was repeated three times in a random arrangement and the results are given in average value of each test (see Table 2 below).

Zoysia japonica = assay: Turf grass selectivity, greenhouse pot test; type: in vivo; details: Zoysia japonica
Description: as §1

Bentgrass = assay: Turf grass selectivity, greenhouse pot test; type: in vivo, Agrostris palustris
Description: as §1

Kentucky bluegrass = assay: Turf grass selectivity, greenhouse pot test; type: in vivo, Poa pratensis
Description: as §1

Trifolium repens = assay: Weed spectrum, greenhouse pot test; type: in vivo; details: two weeks after application
Description: (§2) To a rectangular plastic pot (surface area of 300 cm^2) in which sandy loam and mixed top soil (Boo-Nong Top Soil No. 3, for horticultural use) are filled in 1:1 ratio, eight different kinds of weed seeds including Poa annua and Digitaria sanguinalis as poaceae weed, Cyperus amuricus as cyperaceae weeds and Trifolium repens, Kummerowia striata, fleabane, Veronica officinalis and Portulaca oleracea as broadleaf weeds were sewn (50 to 100 seeds per each weed). These weeds are representative examples of the weeds which typically thrive in a turf grass field.
(§3) The pot was kept in a greenhouse which was maintained at 25˜30° C. for daytime and 15˜25° C. for nighttime, respectively, and irrigation was carried out regularly. Fourteen days after seeding, when the turf grass and the weeds reached approximately at three-leaf stage, the weed seeds were again sewn in separate two pots or “Test chemical” and “Control chemical” were applied in the same manner as the method described above. In this regard, when plants were cultivated for two weeks and then the chemical application was carried out, it is designated as “post-emergence” treatment. On the other than, when the seeding was carried right before the chemical application, it is designated as “pre-emergence” treatment. Preparation of a chemical solution, application method, etc. are the same as above described for evaluation of turf grass selectivity. Two weeks after the chemical application, efficacy of the chemicals for each type of the weeds was evaluated (visual evaluation) based on 0 to 100 scale (i.e., 0 indicates no efficacy and 100 indicates complete weed control).

Veronica officinalis = assay: Weed spectrum, greenhouse pot test; type: in vivo; details: two weeks after application
Description: as §2, §3

Dandelion = assay: Weed spectrum, greenhouse pot test; type: in vivo; details: two weeks after application

Cc1cc(C)nc(NC(=O)NS(=O)(=O)c2ccccc2C(O)C(C)F)n1 (stereo not shown) [Example 1]
90: efficacy (0-100 scale) (Dandelion; Post-emergence, 12 g ai/ha) | efficacy (0-100 scale) (Dandelion; Post-emergence, 25 g ai/ha) | efficacy (0-100 scale) (Dandelion; Pre-emergence, 12 g ai/ha) | efficacy (0-100 scale) (Dandelion; Pre-emergence, 25 g ai/ha)
2: phytotoxicity (visual assessment 0-10) (Bentgrass; 200 g ai/ha, 2 weeks) | phytotoxicity (visual assessment 0-10) (Bentgrass; 400 g ai/ha, 4 weeks) | phytotoxicity (visual assessment 0-10) (Kentucky bluegrass; 400 g ai/ha, 2 weeks)
100: efficacy (0-100 scale) (Dandelion; Post-emergence, 50 g ai/ha) | efficacy (0-100 scale) (Dandelion; Post-emergence, 100 g ai/ha) | efficacy (0-100 scale) (Dandelion; Pre-emergence, 50 g ai/ha) | efficacy (0-100 scale) (Dandelion; Pre-emergence, 100 g ai/ha)
50: efficacy (0-100 scale) (Trifolium repens; Post-emergence, 25 g ai/ha) | efficacy (0-100 scale) (Trifolium repens; Pre-emergence, 25 g ai/ha) | efficacy (0-100 scale) (Veronica officinalis; Pre-emergence, 100 g ai/ha)
1: phytotoxicity (visual assessment 0-10) (Perennial rye grass; 400 g ai/ha, 2 weeks) | phytotoxicity (visual assessment 0-10) (Bentgrass; 100 g ai/ha, 2 weeks) | phytotoxicity (visual assessment 0-10) (Bentgrass; 200 g ai/ha, 4 weeks) | phytotoxicity (visual assessment 0-10) (Kentucky bluegrass; 200 g ai/ha, 2 weeks) | phytotoxicity (visual assessment 0-10) (Kentucky bluegrass; 400 g ai/ha, 4 weeks)
3: phytotoxicity (visual assessment 0-10) (Bentgrass; 400 g ai/ha, 2 weeks)
40: efficacy (0-100 scale) (Trifolium repens; Post-emergence, 12 g ai/ha) | efficacy (0-100 scale) (Veronica officinalis; Pre-emergence, 50 g ai/ha)
0: phytotoxicity (visual assessment 0-10) (Perennial rye grass; 3 g ai/ha, 2 weeks) | phytotoxicity (visual assessment 0-10) (Perennial rye grass; 3 g ai/ha, 4 weeks) | phytotoxicity (visual assessment 0-10) (Perennial rye grass; 6 g ai/ha, 2 weeks) | phytotoxicity (visual assessment 0-10) (Perennial rye grass; 6 g ai/ha, 4 weeks) | phytotoxicity (visual assessment 0-10) (Perennial rye grass; 12 g ai/ha, 2 weeks) | phytotoxicity (visual assessment 0-10) (Perennial rye grass; 12 g ai/ha, 4 weeks) | phytotoxicity (visual assessment 0-10) (Perennial rye grass; 25 g ai/ha, 2 weeks) | phytotoxicity (visual assessment 0-10) (Perennial rye grass; 25 g ai/ha, 4 weeks) | phytotoxicity (visual assessment 0-10) (Perennial rye grass; 50 g ai/ha, 2 weeks) | phytotoxicity (visual assessment 0-10) (Perennial rye grass; 50 g ai/ha, 4 weeks) | phytotoxicity (visual assessment 0-10) (Perennial rye grass; 100 g ai/ha, 2 weeks) | phytotoxicity (visual assessment 0-10) (Perennial rye grass; 100 g ai/ha, 4 weeks) | phytotoxicity (visual assessment 0-10) (Perennial rye grass; 200 g ai/ha, 2 weeks) | phytotoxicity (visual assessment 0-10) (Perennial rye grass; 200 g ai/ha, 4 weeks) | phytotoxicity (visual assessment 0-10) (Perennial rye grass; 400 g ai/ha, 4 weeks) | phytotoxicity (visual assessment 0-10) (Zoysia japonica; 3 g ai/ha, 2 weeks) | phytotoxicity (visual assessment 0-10) (Zoysia japonica; 3 g ai/ha, 4 weeks) | phytotoxicity (visual assessment 0-10) (Zoysia japonica; 6 g ai/ha, 2 weeks) | phytotoxicity (visual assessment 0-10) (Zoysia japonica; 6 g ai/ha, 4 weeks) | phytotoxicity (visual assessment 0-10) (Zoysia japonica; 12 g ai/ha, 2 weeks) | phytotoxicity (visual assessment 0-10) (Zoysia japonica; 12 g ai/ha, 4 weeks) | phytotoxicity (visual assessment 0-10) (Zoysia japonica; 25 g ai/ha, 2 weeks) | phytotoxicity (visual assessment 0-10) (Zoysia japonica; 25 g ai/ha, 4 weeks) | phytotoxicity (visual assessment 0-10) (Zoysia japonica; 50 g ai/ha, 2 weeks) | phytotoxicity (visual assessment 0-10) (Zoysia japonica; 50 g ai/ha, 4 weeks) | phytotoxicity (visual assessment 0-10) (Zoysia japonica; 100 g ai/ha, 2 weeks) | phytotoxicity (visual assessment 0-10) (Zoysia japonica; 100 g ai/ha, 4 weeks) | phytotoxicity (visual assessment 0-10) (Zoysia japonica; 200 g ai/ha, 2 weeks) | phytotoxicity (visual assessment 0-10) (Zoysia japonica; 200 g ai/ha, 4 weeks) | phytotoxicity (visual assessment 0-10) (Zoysia japonica; 400 g ai/ha, 2 weeks) | phytotoxicity (visual assessment 0-10) (Zoysia japonica; 400 g ai/ha, 4 weeks) | phytotoxicity (visual assessment 0-10) (Bentgrass; 3 g ai/ha, 2 weeks) | phytotoxicity (visual assessment 0-10) (Bentgrass; 3 g ai/ha, 4 weeks) | phytotoxicity (visual assessment 0-10) (Bentgrass; 6 g ai/ha, 2 weeks) | phytotoxicity (visual assessment 0-10) (Bentgrass; 6 g ai/ha, 4 weeks) | phytotoxicity (visual assessment 0-10) (Bentgrass; 12 g ai/ha, 2 weeks) | phytotoxicity (visual assessment 0-10) (Bentgrass; 12 g ai/ha, 4 weeks) | phytotoxicity (visual assessment 0-10) (Bentgrass; 25 g ai/ha, 2 weeks) | phytotoxicity (visual assessment 0-10) (Bentgrass; 25 g ai/ha, 4 weeks) | phytotoxicity (visual assessment 0-10) (Bentgrass; 50 g ai/ha, 2 weeks) | phytotoxicity (visual assessment 0-10) (Bentgrass; 50 g ai/ha, 4 weeks) | phytotoxicity (visual assessment 0-10) (Bentgrass; 100 g ai/ha, 4 weeks) | phytotoxicity (visual assessment 0-10) (Kentucky bluegrass; 3 g ai/ha, 2 weeks) | phytotoxicity (visual assessment 0-10) (Kentucky bluegrass; 3 g ai/ha, 4 weeks) | phytotoxicity (visual assessment 0-10) (Kentucky bluegrass; 6 g ai/ha, 2 weeks) | phytotoxicity (visual assessment 0-10) (Kentucky bluegrass; 6 g ai/ha, 4 weeks) | phytotoxicity (visual assessment 0-10) (Kentucky bluegrass; 12 g ai/ha, 2 weeks) | phytotoxicity (visual assessment 0-10) (Kentucky bluegrass; 12 g ai/ha, 4 weeks) | phytotoxicity (visual assessment 0-10) (Kentucky bluegrass; 25 g ai/ha, 2 weeks) | phytotoxicity (visual assessment 0-10) (Kentucky bluegrass; 25 g ai/ha, 4 weeks) | phytotoxicity (visual assessment 0-10) (Kentucky bluegrass; 50 g ai/ha, 2 weeks) | phytotoxicity (visual assessment 0-10) (Kentucky bluegrass; 50 g ai/ha, 4 weeks) | phytotoxicity (visual assessment 0-10) (Kentucky bluegrass; 100 g ai/ha, 2 weeks) | phytotoxicity (visual assessment 0-10) (Kentucky bluegrass; 100 g ai/ha, 4 weeks) | phytotoxicity (visual assessment 0-10) (Kentucky bluegrass; 200 g ai/ha, 4 weeks)
60: efficacy (0-100 scale) (Trifolium repens; Post-emergence, 50 g ai/ha) | efficacy (0-100 scale) (Trifolium repens; Post-emergence, 100 g ai/ha)
30: efficacy (0-100 scale) (Trifolium repens; Pre-emergence, 12 g ai/ha) | efficacy (0-100 scale) (Veronica officinalis; Pre-emergence, 12 g ai/ha) | efficacy (0-100 scale) (Veronica officinalis; Pre-emergence, 25 g ai/ha)
20: efficacy (0-100 scale) (Veronica officinalis; Post-emergence, 12 g ai/ha) | efficacy (0-100 scale) (Veronica officinalis; Post-emergence, 25 g ai/ha) | efficacy (0-100 scale) (Veronica officinalis; Post-emergence, 50 g ai/ha) | efficacy (0-100 scale) (Veronica officinalis; Post-emergence, 100 g ai/ha)
70: efficacy (0-100 scale) (Trifolium repens; Pre-emergence, 50 g ai/ha) | efficacy (0-100 scale) (Trifolium repens; Pre-emergence, 100 g ai/ha)
